Measurements reported in patent publication US10294202B2, “Pyrrolidinones as herbicides” (FMC Corporation, priority 2013, dated 2019).

How the values were obtained:
nightshade = test: Test C pre-/postemergence herbicide test; type: in vivo, Solanum ptycanthum; conditions: Preemergence
From the text: (§1) Seeds of plant species selected from blackgrass (Alopecurus myosuroides), ryegrass, Italian (Italian ryegrass, Lolium multiflorum), wheat (winter wheat, Triticum aestivum), galium (catchweed bedstraw, Galium aparine), corn (Zea mays), crabgrass, large (large crabgrass, Digitaria sanguinalis), foxtail, giant (giant foxtail, Setaria faberii), johnsongrass (Sorghum halepense), lambsquarters (Chenopodium album), morningglory (Ipomoea coccinea), nutsedge, yellow (yellow nutsedge, Cyperus esculentus), pigweed (Amaranthus retroflexus), ragweed (common ragweed, Ambrosia elatior), soybean (Glycine max), barnyardgrass (Echinochloa crus-galli), oilseed rape (Brassica napus), waterhemp (common waterhemp, Amaranthus rudis), kochia (Kochia scoparia), oat, wild (wild oat, Avena fatua), surinam grass (Brachiaria decumbens), foxtail, green (green foxtail, Setaria viridis), goosegrass (Eleusine indica), bromegrass, downy (downy bromegrass, Bromus tectorum), nightshade (eastern black nightshade, Solanum ptycanthum), cocklebur (common cocklebur, Xanthium strumarium), cupgrass, woolly (woolly cupgrass, Eriochloa villosa), bermudagrass (Cynodon dactylon), sunflower, (common oilseed sunflower, Helianthus annuus), Russian thistle (Salsola kali) and velvetleaf (Abutilon theophrasti) were planted into a blend of loam soil and sand and treated preemergence with test chemicals formulated in a non-phytotoxic solvent mixture which included a surfactant. At the same time, plants selected from these crop and weed species and also barley (winter barley, Hordeum vulgare), […]), chickweed (common chickweed, Stellaria media), deadnettle (henbit deadnettle, Lamium amplexicaule), and canarygrass (littleseed canarygrass, Phalaris minor) were planted in pots containing Redi-Earth® planting medium (Scotts Company, 14111 Scottslawn Road, Marysville, Ohio 43041) comprising spaghnum peat moss, vermiculite, wetting agent and starter nutrients and treated with postemergence applications of test chemicals formulated in the same manner. Plants ranged in height from 2 to 18 cm (1- to 4-leaf stage) for postemergence treatments. Treated plants and controls were maintained in a greenhouse for 13 to 15 days, after which time all species were compared to controls and visually evaluated. Plant response ratings, summarized in Table C, are based on a scale of 0 to 100 where 0 is no effect and 100 is complete control. A dash (-) response means no test result.

cocklebur = test: Test C pre-/postemergence herbicide test; type: in vivo, Xanthium strumarium
From the text: as §1

galium = test: Test D pre-/postemergence herbicide test; type: in vivo, Galium aparine; conditions: for Plant response rating: Galium, scale 0 to 100; for Plant response rating, Galium: scale 0 to 100 (0 no effect, 100 complete control)
From the text: Seeds of plant species selected from bluegrass (annual bluegrass, Poa annua), blackgrass (Alopecurus myosuroides), canarygrass (littleseed canarygrass, Phalaris minor), chickweed (common chickweed, Stellaria media), galium (catchweed bedstraw, Galium aparine), bromegrass, downy (downy bromegrass, Bromus tectorum), field poppy (Papaver rhoeas), field violet (Viola arvensis), foxtail, green (green foxtail, Setaria viridis), deadnettle (henbit deadnettle, Lamium amplexicaule), ryegrass, Italian (Italian ryegrass, Lolium multiflorum), kochia (Kochia scoparia), lambsquarters (Chenopodium album), oilseed rape (Brassica napus), pigweed (Amaranthus retroflexus), chamomile (scentless chamomile, Matricaria inodora), Russian thistle (Salsola kali), speedwell (bird's-eye speedwell, Veronica persica), barley, spring (spring barley, Hordeum vulgare), wheat, spring (spring wheat, Triticum aestivum), buckwheat, wild (wild buckwheat, Polygonum convolvulus), mustard, wild (wild mustard, Sinapis arvensis), oat, wild (wild oat, Avena fatua), radish, wild (wild radish, Raphanus raphanistrum), […]), barley, winter (winter barley, Hordeum vulgare), and wheat, winter (winter wheat, Triticum aestivum) were planted into a silt loam soil and treated preemergence with test chemicals formulated in a non-phytotoxic solvent mixture which included a surfactant. At the same time, these species were planted in pots containing Redi-Earth® planting medium (Scotts Company, 14111 Scottslawn Road, Marysville, Ohio 43041) comprising spaghnum peat moss, vermiculite, wetting agent and starter nutrients and treated with postemergence applications of the test chemicals formulated in the same manner. Plants ranged in height from 2 to 18 cm (1- to 4-leaf stage). Treated plants and controls were maintained in a controlled growth environment for 7 to 21 days after which time all species were compared to controls and visually evaluated. Plant response ratings, summarized in Table D, are based on a scale of 0 to 100 where 0 is no effect and 100 is complete control. A dash (-) response means no test result.

foxtail, giant = test: Test E preemergence herbicide test; type: in vivo, Setaria faberii; parameters: key: 0 = no effect, 100 = complete control
From the text: (§2) Seeds of plant species selected from corn (Zea mays), soybean (Glycine max), velvetleaf (Abutilon theophrasti), lambsquarters (Chenopodium album), wild poinsettia (Euphorbia heterophylla), pigweed, palmer (palmer pigweed, Amaranthus palmeri), waterhemp (common waterhemp, Amaranthus rudis), surinam grass (Brachiaria decumbens), crabgrass, large (large crabgrass, Digitaria sanguinalis), crabgrass, Brazil (Brazilian crabgrass, Digitaria horizontalis), panicum, fall (fall panicum, Panicum dichotomiflorum), foxtail, giant (giant foxtail, Setaria faberii), foxtail, green (green foxtail, Setaria viridis), goosegrass (Eleusine indica), johnsongrass (Sorghum halepense), ragweed (common ragweed, Ambrosia elatior), barnyardgrass (Echinochloa crus-galli), sandbur (southern sandbur, Cenchrus echinatus), arrowleaf […] rhombifolia), ryegrass, Italian (Italian ryegrass, Lolium multiflorum), dayflower, VA (Virginia dayflower, Commelina virginica), field bindweed (Convolvulus arvensis), morningglory (Ipomoea coccinea), nightshade (eastern black nightshade, Solanum ptycanthum), kochia (Kochia scoparia), nutsedge, yellow (yellow nutsedge, Cyperus esculentus), cocklebur (common cocklebur, Xanthium strumarium), smartweed (ladysthumb smartweed, Polygonum Persicaria) and beggarticks (hairy beggarticks, Bidens pilosa), were planted into a silt loam soil and treated preemergence with test chemicals formulated in a non-phytotoxic solvent mixture which included a surfactant. Treated plants and controls were maintained in a greenhouse for 21 days, after which time all species were compared to controls and visually evaluated. Plant response ratings, summarized in Table E, are based on a scale of 0 to 100 where 0 is no effect and 100 is complete control. A dash (-) response means no test result.

soybean = test: Test E preemergence herbicide test; type: in vivo, Glycine max; parameters: key: 0 = no effect, 100 = complete control
Method in brief: (§3)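 Visual injury rating, 0 (no effect) to 100 (complete control), versus controls at 21 days in greenhouse. Preemergence application to seeds planted in silt loam; compound formulated in non-phytotoxic solvent mix plus surfactant.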

barnyardgrass = test: Test E preemergence herbicide test; type: in vivo, Echinochloa crus-galli; parameters: key: 0 = no effect, 100 = complete control
From the text: as §2

lambsquarters = test: Test E preemergence herbicide test; type: in vivo, Chenopodium album; parameters: key: 0 = no effect, 100 = complete control
Method in brief: as §3

[1] = 125 g ai/ha, scale 0 to 100 (0 no effect, 100 complete control)
[2] = Preemergence, 62 g ai/ha, scale 0 to 100
[3] = Preemergence, 125 g ai/ha, scale 0 to 100 (0 no effect, 100 complete control)
[4] = Preemergence, 31 g ai/ha, scale 0 to 100 (0 no effect, 100 complete control)
[5] = Postemergence, 31 g ai/ha, scale 0 (no effect) to 100 (complete control)
[6] = Postemergence, 62 g ai/ha, scale 0 to 100 (0 no effect, 100 complete control)
[7] = Postemergence, 125 g ai/ha, scale 0 to 100 (0 no effect, 100 complete control)

O=C1NCCC1C(=O)N(c1ccc(F)c(F)c1)c1ccccc1F (stereo not shown) [Compound 5, N-(3,4-difluorophenyl)-N-(2-fluorophenyl)-2-oxo-3-pyrrolidinecarboxamide]
Plant response rating, Nightshade (nightshade; 62 g ai/ha, scale 0 to 100): 45 | Plant response rating, Nightshade (nightshade; [1]): 45 | Plant response rating, Cocklebur (cocklebur; [2]): 0 | Plant response rating, Cocklebur (cocklebur; [3]): 0 | Cocklebur plant response rating (cocklebur; [4]): 0 | Plant response rating, Cocklebur (cocklebur; Preemergence, 250 g ai/ha, scale 0 to 100 (0 no effect, 100 complete control)): 0

O=C1NCC(c2cc(F)c(F)c(F)c2)C1C(=O)Nc1cccc(F)c1F (stereo not shown) [Compound 48]
Plant response rating, Nightshade (nightshade; 62 g ai/ha, scale 0 to 100): 0 | Plant response rating, Nightshade (nightshade; [1]): 0 | Plant response rating, Nightshade (nightshade; 16 g ai/ha, scale 0 to 100): 0 | Plant response rating, Cocklebur (cocklebur; Postemergence, 16 g ai/ha, scale 0 to 100 (0 no effect, 100 complete control)): 0 | Plant response rating, Cocklebur (cocklebur; [5]): 5 | Plant response rating, Cocklebur (cocklebur; [6]): 10 | Plant response rating, Cocklebur (cocklebur; [7]): 10 | Plant response rating, Cocklebur (cocklebur; [2]): 0 | Plant response rating, Cocklebur (cocklebur; [3]): 5 | Plant response rating, Cocklebur (cocklebur; Preemergence, 16 g ai/ha, scale 0 to 100): 0 | Cocklebur plant response rating (cocklebur; [4]): 0

O=C1NCC(c2ccc(Cl)c(F)c2)C1C(=O)Nc1cccc(F)c1F (stereo not shown) [Compound 52]
Plant response rating, Nightshade (nightshade; 62 g ai/ha, scale 0 to 100): 0 | Plant response rating, Nightshade (nightshade; [1]): 0 | Plant response rating, Cocklebur (cocklebur; [5]): 5 | Plant response rating, Cocklebur (cocklebur; [6]): 5 | Plant response rating, Cocklebur (cocklebur; [7]): 5 | Plant response rating, Cocklebur (cocklebur; Postemergence, 250 g ai/ha, scale 0 to 100 (0 no effect, 100 complete control)): 5 | Plant response rating, Cocklebur (cocklebur; [2]): 0 | Plant response rating, Cocklebur (cocklebur; [3]): 0 | Cocklebur plant response rating (cocklebur; [4]): 0 | Plant response rating (galium; Postemergence, 16 g ai/ha): 0 | Plant response rating (galium; Postemergence, 31 g ai/ha): 0 | Plant response rating (galium; Postemergence, 62 g ai/ha): 0 | Plant response rating (galium; Postemergence, 125 g ai/ha): 25 | Plant response rating (galium; Postemergence, 250 g ai/ha): 35 | Plant response rating, Galium (galium; Preemergence, 62 g ai/ha): 0 | Plant response rating, Galium (galium; Preemergence, 16 g ai/ha): 0 | Plant response rating, Galium (galium; Preemergence, 31 g ai/ha): 0 | Plant response rating (galium; Preemergence, 125 g ai/ha): 0 | Plant response rating (galium; Preemergence, 250 g ai/ha): 20

O=C1NCC(c2ccc(F)c(Cl)c2)C1C(=O)Nc1ccccc1F (stereo not shown) [Compound 60]
Plant response rating, Nightshade (nightshade; 62 g ai/ha, scale 0 to 100): 0 | Plant response rating, Nightshade (nightshade; [1]): 0 | Plant response rating, Cocklebur (cocklebur; [5]): 0 | Plant response rating, Cocklebur (cocklebur; [6]): 0 | Plant response rating, Cocklebur (cocklebur; [7]): 0 | Plant response rating, Cocklebur (cocklebur; [2]): 0 | Plant response rating, Cocklebur (cocklebur; [3]): 0

O=C1NCC(c2cccc(OC(F)(F)F)c2)C1C(=O)Nc1ccccc1F (stereo not shown) [Compound 69]
Nightshade plant response rating (nightshade; 31 g ai/ha, scale 0 to 100, 0 is no effect and 100 is complete control): 0 | Plant response rating, Nightshade (nightshade; 62 g ai/ha, scale 0 to 100): 0 | Plant response rating, Nightshade (nightshade; [1]): 0 | Plant response rating (scale of 0 to 100), Nightshade (nightshade; 250 g ai/ha): 0 | Cocklebur plant response rating (cocklebur; Preemergence, 31 g ai/ha, scale 0 to 100, 0 is no effect and 100 is complete control): 0 | Plant response rating (scale of 0 to 100), Cocklebur (cocklebur; Preemergence, 250 g ai/ha): 0

O=C1NC[C@H](c2cccc(C(F)(F)F)c2)[C@H]1C(=O)Nc1ccccc1F [Compound 204, (3R,4S)—N-(2-fluorophenyl)-2-oxo-4-[3-(trifluoromethyl)phenyl]-3-pyrrolidinecarboxamide]
Plant response rating, Foxtail, Giant (foxtail, giant; 31 g ai/ha): 50 | Plant response rating, Foxtail, Giant (foxtail, giant; 62 g ai/ha): 95 | Plant response rating, Foxtail, Giant (foxtail, giant; 125 g ai/ha): 95 | Plant response rating, Foxtail, Giant (foxtail, giant; 250 g ai/ha): 98 | Plant response rating, Soybean (soybean; 31 g ai/ha): 0 | Plant response rating, Soybean (soybean; 62 g ai/ha): 0 | Plant response rating, Soybean (soybean; 125 g ai/ha): 0 | Plant response rating, Galium (galium; Preemergence, 62 g ai/ha): 10 | Plant response rating, Galium (galium; Preemergence, 125 g ai/ha): 10 | Plant response rating, Galium (galium; Preemergence, 31 g ai/ha): 0 | Plant response rating (galium; Preemergence, 250 g ai/ha): 25 | Plant response rating, Barnyardgrass (barnyardgrass; 31 g ai/ha): 20 | Plant response rating, Barnyardgrass (barnyardgrass; 62 g ai/ha): 75 | Plant response rating, Barnyardgrass (barnyardgrass; 125 g ai/ha): 98 | Plant response rating, Barnyardgrass (barnyardgrass; 250 g ai/ha): 98 | Plant response rating, Lambsquarters (lambsquarters; 31 g ai/ha): 98 | Plant response rating, Lambsquarters (lambsquarters; 62 g ai/ha): 98 | Plant response rating, Lambsquarters (lambsquarters; 125 g ai/ha): 90 | Plant response rating, Lambsquarters (lambsquarters; 250 g ai/ha): 65

O=C1NC[C@H](c2cccc(C(F)(F)F)c2)[C@H]1C(=O)Nc1cccc(F)c1F [Compound 206]
Plant response rating, Foxtail, Giant (foxtail, giant; 31 g ai/ha): 90 | Plant response rating, Foxtail, Giant (foxtail, giant; 62 g ai/ha): 98 | Plant response rating, Foxtail, Giant (foxtail, giant; 125 g ai/ha): 98 | Plant response rating, Foxtail, Giant (foxtail, giant; 250 g ai/ha): 98 | Plant response rating, Soybean (soybean; 31 g ai/ha): 0 | Plant response rating, Soybean (soybean; 62 g ai/ha): 0 | Plant response rating, Soybean (soybean; 125 g ai/ha): 0 | Plant response rating, Soybean (soybean; 250 g ai/ha): 0 | Plant response rating, Galium (galium; Preemergence, 62 g ai/ha): 40 | Plant response rating, Galium (galium; Preemergence, 125 g ai/ha): 50 | Plant response rating, Galium (galium; Preemergence, 31 g ai/ha): 10 | Plant response rating (galium; Preemergence, 250 g ai/ha): 80 | Plant response rating, Barnyardgrass (barnyardgrass; 31 g ai/ha): 70 | Plant response rating, Barnyardgrass (barnyardgrass; 62 g ai/ha): 75 | Plant response rating, Barnyardgrass (barnyardgrass; 125 g ai/ha): 95 | Plant response rating, Barnyardgrass (barnyardgrass; 250 g ai/ha): 98 | Plant response rating, Lambsquarters (lambsquarters; 31 g ai/ha): 35 | Plant response rating, Lambsquarters (lambsquarters; 62 g ai/ha): 65 | Plant response rating, Lambsquarters (lambsquarters; 125 g ai/ha): 95 | Plant response rating, Lambsquarters (lambsquarters; 250 g ai/ha): 98
